By viability is commonly meant a read-out of living cells in per cent, often relative to untreated cells.

The test system of one assay is primary CLL cells. As to the kind of experiment: Cytotoxicity, TMRE flow cytometry viability, primary CLL cells (Example II.1). In kind it is cell-based. To be noted: Homo sapiens, CLL cell, 6 hours, TMRE positive cells normalized to control, ratio to PF670462, <1 = higher cytotoxicity than PF670462, read-out: Viability of cells, Compound of formula I (100 μM), relative to PF670462 (100 μM), CLL primary cells. The method, then: (§1) The leukemia and lymphoma-derived cell lines [MEC-1 cell line (derived from chronic lymphocytic leukemia—CLL), Nalm-16 (acute lymphocytic leukemia—ALL), K562 (chronic myeloid leukemia—CML), HL-60 (acute myeloid leukemia—AML), Maver-1 and Mino (mantle cell lymphoma—MCL), BL-41 (Burkitt lymphoma—BL), WSU-NHL (follicular lymphoma—FL), SUDHL (diffuse large B-cell lymphoma—DLBCL)], primary CLL cells and nonmalignant control primary cells were cultured in suspension in flasks under the following conditions: RPMI 1640 medium (Hyclone) supplemented with 10% fetal bovine serum (FBS, Gibco) and 1% penicillin/streptomycin (Life Technologies), 37° C., 5% CO2 and 95% relative humidity, with optimal culture cell density 5×10^6 cells/mL in case of primary cells and 0.5-1×10^6 cells/mL in case of cell lines. The adherent cell lines [A375 (derived from malignant melanoma), MDA-MB-231 and MCF-7 (breast cancer), MIA-PA-CA and PANC1 (pancreatic cancer), PC3 (prostate cancer), OVCAR4 (ovarian cancer) and HEPG2 (hepatocellular carcinoma)] were cultured on plates under the same conditions using RPMI1640 or DMEM medium (Gibco) according to instructions provided by the distributor (DSMZ/ATCC).
(§2) Cytotoxicity of compounds of formula I was tested in two models representative for leukemia (primary CLL cells) and lymphoma (Maver-1 cells). The primary CLL cells and Maver-1 cells (MCL-derived) were incubated with inhibitors at 100 μM concentration or corresponding amount of solvent (DMSO, Sigma Aldrich) as 0.1×10^6 cells/200 μl per well in a 96-well plate. Experiments were performed in technical duplicates. Viability of cells was assessed after 6 hours in case of primary CLL cells and after 24 hours in case of Maver-1 cells.
(§3) Apoptosis-induced reduction of mitochondrial potential is detected as lower TMRE fluorescence. […] Relative values are presented, showing ratio to the effect of PF670462 (as the closest prior art). Relative value <1 indicates a higher cytotoxicity than PF670462.
Background: A flow cytometer gives signals particle by particle.
For the molecule `Fc1cccc(-c2ncn(C3CCCCC3)c2-c2ccnc3[nH]ccc23)c1` [Preparative Example 1, 4-(1-cyclohexyl-4-(3-fluorophenyl)-1H-imidazol-5-yl)-1H-pyrrolo[2,3-b]pyridine], the viability at 100 µM is 18%. `Fc1ccccc1-c1ncn(C2CCCCC2)c1-c1ccnc2[nH]ccc12` [Preparative Example 2, 4-(1-cyclohexyl-4-(2-fluorophenyl)-1H-imidazol-5-yl)-1H-pyrrolo[2,3-b]pyridine]: the viability at 100 µM came to 37%. For `Fc1ccc(-c2ncn(CCN3CCOCC3)c2-c2ccnc3[nH]ccc23)cc1` [Preparative Example 12, 4-(2-(4-(4-fluorophenyl)-5-(1H-pyrrolo[2,3-b]pyridin-4-yl)-1H-imidazol-1-yl)ethyl)morpholine], the viability at 100 µM is 80%. On to `Fc1ccc(-c2ncn(C3CCOCC3)c2-c2ccnc3[nH]ccc23)cc1` [Preparative Example 13, 4-(4-(4-fluorophenyl)-1-(tetrahydro-2H-pyran-4-yl)-1H-imidazol-5-yl)-1H-pyrrolo[2,3-b]pyridine], for which the viability at 100 µM came out at 47%. With `CC(C)CCn1cnc(-c2ccc(F)cc2)c1-c1ccnc2[nH]ccc12` [Preparative Example 15, 4-(4-(4-fluorophenyl)-1-isopentyl-1H-imidazol-5-yl)-1H-pyrrolo[2,3-b]pyridine], the viability at 100 µM came out at 13%. Turning to `Fc1ccc(-c2ncn(C3CCOC3)c2-c2ccnc3[nH]ccc23)cc1` (stereo not drawn) [Preparative Example 16, 4-(4-(4-fluorophenyl)-1-(tetrahydrofuran-3-yl)-1H-imidazol-5-yl)-1H-pyrrolo[2,3-b]pyridine], the viability at 100 µM stood at 67%. For the molecule `Fc1ccc(-c2ncn(C3CCC3)c2-c2ccnc3[nH]ccc23)cc1` [Preparative Example 17, 4-(1-cyclobutyl-4-(4-fluorophenyl)-1H-imidazol-5-yl)-1H-pyrrolo[2,3-b]pyridine], the viability at 100 µM stood at 52%. As for `Fc1ccc(-c2ncn(C3CCCC3)c2-c2ccnc3[nH]ccc23)cc1` [Preparative Example 18, 4-(1-cyclopentyl-4-(4-fluorophenyl)-1H-imidazol-5-yl)-1H-pyrrolo[2,3-b]pyridine], the viability at 100 µM amounted to 33%. Consider `CC(C)OCCn1cnc(-c2ccc(F)cc2)c1-c1ccnc2[nH]ccc12` [Preparative Example 20, 4-(4-(4-fluorophenyl)-1-(2-isopropoxyethyl)-1H-imidazol-5-yl)-1H-pyrrolo[2,3-b]pyridine], for which the viability at 100 µM came to 68%.

For the molecule `CN(C)CCn1cnc(-c2ccc(F)cc2)c1-c1ccnc2[nH]ccc12` [Preparative Example 21], the viability at 100 µM was 72%. On the same count and under the same terms, the value for `Cn1cnc(-c2ccc(F)cc2)c1-c1ccnc2[nH]ccc12` [Preparative Example 25] was 81%; that for `CO[C@H]1CC[C@H](n2cnc(-c3ccc(F)cc3)c2-c2ccnc3[nH]ccc23)CC1` [Preparative Example 28, 4-(4-(4-fluorophenyl)-1-(trans-4-methoxycyclohexyl)-1H-imidazol-5-yl)-1H-pyrrolo[2,3-b]pyridine] was 67%; that for `C=C(C)Cn1cnc(-c2ccc(F)cc2)c1-c1ccnc2[nH]ccc12` [Preparative Example 30, 4-(4-(4-fluorophenyl)-1-(2-methylallyl)-1H-imidazol-5-yl)-1H-pyrrolo[2,3-b]pyridine] was 69%. Regarding `O[C@H]1CC[C@@H](n2cnc(-c3ccc(F)cc3)c2-c2ccnc3[nH]ccc23)CC1` [Preparative Example 31], the viability at 100 µM was found to be 78%.

In the case of `O[C@H]1CC[C@H](n2cnc(-c3ccc(F)cc3)c2-c2ccnc3[nH]ccc23)CC1` [Preparative Example 32, trans-4-(4-(4-fluorophenyl)-5-(1H-pyrrolo[2,3-b]pyridin-4-yl)-1H-imidazol-1-yl)cyclohexan-1-ol], the viability at 100 µM is 67%. The same measure, in the same setting: the value for `c1cncc(-c2ncn(C3CCCCC3)c2-c2ccnc3[nH]ccc23)c1` [Preparative Example 44] was 81%; that for `CC(=O)N1CCC(n2cnc(-c3ccc(F)cc3)c2-c2ccnc3[nH]ccc23)CC1` [Preparative Example 68, 1-(4-(4-(4-fluorophenyl)-5-(1H-pyrrolo[2,3-b]pyridin-4-yl)-1H-imidazol-1-yl)piperidin-1-yl)ethan-1-one] was 81%; that for `CC(=O)N[C@H]1CC[C@H](n2cnc(-c3ccc(F)cc3)c2-c2ccnc3[nH]ccc23)CC1` [Preparative Example 78, N-(trans-4-(4-(4-fluorophenyl)-5-(1H-pyrrolo[2,3-b]pyridin-4-yl)-1H-imidazol-1-yl)cyclohexyl)acetamide] was 87%. As to `CS(=O)(=O)N[C@H]1CC[C@H](n2cnc(-c3ccc(F)cc3)c2-c2ccnc3[nH]ccc23)CC1` [Preparative Example 79, N-(trans-4-(4-(4-fluorophenyl)-5-(1H-pyrrolo[2,3-b]pyridin-4-yl)-1H-imidazol-1-yl)cyclohexyl)methanesulfonamide], the viability at 100 µM is 86%. For the molecule `Fc1ccc(-c2ncn(Cc3ccncc3)c2-c2ccnc3[nH]ccc23)cc1` [Preparative Example 83, 4-(4-(4-fluorophenyl)-1-(pyridin-4-ylmethyl)-1H-imidazol-5-yl)-1H-pyrrolo[2,3-b]pyridine], the viability at 100 µM came out at 78%. Consider `Fc1ccc(-c2ncn(C34CCN(CC3)C4)c2-c2ccnc3[nH]ccc23)cc1` [Preparative Example 86, 4-(1-((1r,4r)-1-azabicyclo[2.2.1]heptan-4-yl)-4-(4-fluorophenyl)-1H-imidazol-5-yl)-1H-pyrrolo[2,3-b]pyridine], for which the viability at 100 µM amounted to 76%. The same measure, in the same setting: for `CN1CCC(O)(Cn2cnc(-c3ccc(F)cc3)c2-c2ccnc3[nH]ccc23)CC1` [Preparative Example 119, 4-((4-(4-fluorophenyl)-5-(1H-pyrrolo[2,3-b]pyridin-4-yl)-1H-imidazol-1-yl)methyl)-1-methylpiperidin-4-ol] the value was 87%; for `Fc1ccc(-c2ncn(Cc3cnsc3)c2-c2ccnc3[nH]ccc23)cc1` [Preparative Example 130, 4-((4-(4-fluorophenyl)-5-(1H-pyrrolo[2,3-b]pyridin-4-yl)-1H-imidazol-1-yl)methyl)isothiazole], 89%. In the case of `Cn1ccc(Cn2cnc(-c3ccc(F)c(Cl)c3)c2-c2ccnc3[nH]ccc23)n1` [Preparative Example 143, 4-(4-(3-chloro-4-fluorophenyl)-1-((1-methyl-1H-pyrazol-3-yl)methyl)-1H-imidazol-5-yl)-1H-pyrrolo[2,3-b]pyridine], the viability at 100 µM was 66%.

In the case of `O[C@H]1CCC[C@H](n2cnc(-c3ccc(F)cc3)c2-c2ccnc3[nH]ccc23)C1` [Preparative Example 158, (1S,3S)-3-(4-(4-fluorophenyl)-5-(1H-pyrrolo[2,3-b]pyridin-4-yl)-1H-imidazol-1-yl)cyclohexan-1-ol], the viability at 100 µM stood at 76%.

The next assay has as its system Maver-1 cells (mantle cell lymphoma). As to the kind of experiment: Cytotoxicity, TMRE flow cytometry viability, Maver-1 cells (Example II.1). Format: cell-based. To be noted: Homo sapiens, Maver1, 24 hours, TMRE positive cells normalized to control, ratio to PF670462, <1 = higher cytotoxicity than PF670462, read-out: Viability of cells, Compound of formula I (100 μM), relative to PF670462 (100 μM), Maver-1 cells (mantle cell lymphoma). The method, then:
as §1, §2, §3
Take `Fc1cccc(-c2ncn(C3CCCCC3)c2-c2ccnc3[nH]ccc23)c1` [Preparative Example 1, 4-(1-cyclohexyl-4-(3-fluorophenyl)-1H-imidazol-5-yl)-1H-pyrrolo[2,3-b]pyridine]: the viability at 100 µM amounted to 6%. Turning to `Fc1ccccc1-c1ncn(C2CCCCC2)c1-c1ccnc2[nH]ccc12` [Preparative Example 2, 4-(1-cyclohexyl-4-(2-fluorophenyl)-1H-imidazol-5-yl)-1H-pyrrolo[2,3-b]pyridine], the viability at 100 µM is 32%. With `OC1(Cn2cnc(-c3ccc(F)cc3)c2-c2ccnc3[nH]ccc23)CCC1` [Preparative Example 91, 1-((4-(4-fluorophenyl)-5-(1H-pyrrolo[2,3-b]pyridin-4-yl)-1H-imidazol-1-yl)methyl)cyclobutan-1-ol], the viability at 100 µM was determined as 69%. With `Cn1cc(Cn2cnc(-c3ccc(F)cc3)c2-c2ccnc3[nH]ccc23)cn1` [Preparative Example 93], the viability at 100 µM worked out at 75%.

In the case of `Fc1ccc(-c2ncn(Cc3cscn3)c2-c2ccnc3[nH]ccc23)cc1` [Preparative Example 127, 4-((4-(4-fluorophenyl)-5-(1H-pyrrolo[2,3-b]pyridin-4-yl)-1H-imidazol-1-yl)methyl)thiazole], the viability at 100 µM turned out to be 72%. In the case of `CC(c1cnn(C)c1)n1cnc(-c2ccc(F)cc2)c1-c1ccnc2[nH]ccc12` (stereo not drawn) [Preparative Example 145], the viability at 100 µM amounted to 42%. The same measure, in the same setting: the value for `Cc1ncc(Cn2cnc(-c3ccc(F)cc3)c2-c2ccnc3[nH]ccc23)s1` [Preparative Example 152, 5-((4-(4-fluorophenyl)-5-(1H-pyrrolo[2,3-b]pyridin-4-yl)-1H-imidazol-1-yl)methyl)-2-methylthiazole] was 62%; that for `Fc1ccc(-c2ncn(Cc3ccccc3)c2-c2ccnc3[nH]ccc23)nc1` [Preparative Example 184, 4-(1-benzyl-4-(5-fluoropyridin-2-yl)-1H-imidazol-5-yl)-1H-pyrrolo[2,3-b]pyridine] was 57%.

Values taken from patent US11498920B2, “4-(1H-imidazol-5-yl)-1H-pyrrolo[2, 3-b] pyridines for use in the treatment of leukaemias, lymphomas and solid tumors” (MASARYKOVA UNIVERZITA, priority 2018, dated 2022).
